Measurements published in US20070128285A1, “Pharmaceutical composition for oral administration” (priority 2005, published 2007).

Assay: Stability of setron drug aqueous solutions (0.1 w/w %) at pH 8 to 3, stored at 40° C. for three months
Format: physicochemical
Details: 0.1 w/w % aqueous solution
Method: The present inventors have investigated the stability of each setron drug (azasetron, granisetron, tropisetron, ramosetron, or ondansetron) in the aqueous solution of pH 8 to3. That is, an aqueous solution of each setron drug (0.1 w/w %) was adjusted to various pH values (pH 8 to 3) with hydrochloric acid or sodium hydroxide. After storing at 40° C. for three months, the external appearance and taste of the solution were observed. As a result, for each of the setron drugs, the aqueous solution of pH 8 is colored faint yellow, but the aqueous solution of pH 3 to 7 is colorless.

[1] = pH 3 to 7, stored at 40° C. for three months
[2] = pH 8, stored at 40° C. for three months

external appearance (color) of the aqueous solution [1]	external appearance (color) of the aqueous solution [2]	Compound
colorless	faint yellow	Cc1nccn1CC1CCc2c(c3ccccc3n2C)C1=O (stereo not shown) [ondansetron]
colorless	faint yellow	Cn1cc(C(=O)[C@@H]2CCc3nc[nH]c3C2)c2ccccc21 [ramosetron]

Further lines, the compound ahead of its results:

Compound	external appearance (color) of the aqueous solution [1]	external appearance (color) of the aqueous solution [2]
CN1C(=O)COc2c(C(=O)NC3CN4CCC3CC4)cc(Cl)cc21 (stereo not shown) [azasetron]	colorless	faint yellow
CN1[C@@H]2CC[C@H]1C[C@@H](OC(=O)c1c[nH]c3ccccc13)C2 [tropisetron]	colorless	faint yellow
CN1C2CCCC1CC(NC(=O)c1nn(C)c3ccccc13)C2 (stereo not shown) [granisetron]	colorless	faint yellow
